In PubChem BioAssay AID179 (DTP/NCI, 2004):
The source made the active and inactive calls.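 How the source made its calls: active means compounds giving half or more protection of infected cells from virus-caused growth loss, again on retest; inactive means the rest.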 Where a SMILES comes first, the peptide text is derived from it.

Test system: CEM cells HIV-1 protection, formazan growth assay
Test: NCI AIDS Antiviral Assay
Settings: for IC50: measured here: growth of uninfected CEM cells
How it was run: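 Human CEM cells, uninfected and HIV-1-infected, received five drug concentrations, and growth was read by soluble formazan assay. Compounds giving at least 50% protection were retested; reproducible 100% protection defined confirmed active.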

Structure (SMILES) | EC50 | IC50 | outcome
CC(C)[C@@H]1C=C(c2ccccc2)c2ccccc2C1C(C#N)(C#N)C(C)C (some centres undefined) | > 20.4 µM | > 20.4 µM | 
O=C(Nc1ccc(CCC2=NCCCN2)cc1)c1ccc(C(=O)Nc2ccc(CCC3=NCCCN3)cc2)cc1 | 42.7 µM | 158 µM | 
CC(=O)C1C(=O)C(=O)N(c2ccc(Br)cc2)C1=O (centres undefined) |  |  | inactive
CCOC(=O)/C(=C/c1ccc(C)cc1)P(=O)(OCC)OCC | 562 µM | 631 µM | 
C[C@]12CC[C@H](O)CC1=CC[C@@H]1C2CC[C@]2(C)NC(=O)CCC12 (some centres undefined) |  |  | inactive
Oc1ccc(C23CC4CC(CC(C4)C2)C3)cc1 |  |  | inactive
COC(=O)NCC(OC(=O)c1cc2c(cc1I)OCO2)C1=CCCCC1 (centres undefined) | > 28.8 µM | > 28.8 µM | 
CC(C)(NC(=O)C(C)(C)NC(=O)OCc1ccccc1)C(=O)O (HELM PEPTIDE1{[O=C(OCc1ccccc1)[*:2]].[Aib].[Aib]}$$$$V2.0) | > 200 µM | > 200 µM | 
COc1ccc(C(=O)CC(c2ccc(OC)c(OC)c2)c2c(O)c3ccccc3oc2=O)cc1OC (centres undefined) | > 200 µM | 117 µM | 
CC1(C)COC(c2ccc(C(F)(F)F)cc2C(O)c2ccc3ccccc3c2)=N1 (centres undefined) |  |  | inactive
CCCNC(=O)OCCCOC(=O)/C=C(\C(=O)OCCCOC(=O)NCCC)N1[C@H](C)Cc2c(-c3cc(-c4cc(-c5c(O)cc(O)c6c5C[C@@H](C)N[C@@H]6C)c5cc(C)cc(OC)c5c4O)c(O)c4c(OC)cc(C)cc34)c(O)cc(O)c2[C@H]1C | > 25.1 µM | > 25.1 µM | 
CCNc1ccc2c(c1)C(=O)N(OS(C)(=O)=O)C2=O |  |  | inactive
Cn1c(=O)c2nc(N3CCOCC3)cnc2n(C)c1=O | > 200 µM | > 200 µM | 
N/C(CCSCCSCC/C(N)=N\O)=N\O | > 200 µM | > 200 µM | 
Cn1c(=O)[nH]c(N2CCOCC2)c(C#N)c1=S | > 200 µM | > 200 µM | 
COc1c(O)ccc2oc3cccc(O)c3c(=O)c12 | > 200 µM | 110 µM | 
N#C/C(=C1\SCC(=O)N1c1ccccc1)c1nc2ccccc2[nH]1 | > 4.37 µM | > 4.37 µM | 
CCCCCC/C(CC(=O)CCC(=O)NCCc1ccccc1)=N\NC(=O)c1ccc2ccccc2c1O | > 251 µM | 14.5 µM | 
COc1c(O)c2c(=O)cc(OC)c3c4c(OC)cc(=O)c5c(O)c(OC)c6c(c(c1CC(C)=C6OC(C)=O)c23)c54 | > 4.79 µM | 1.29 µM | 
CC(=O)OCC1OC(n2cnc3nc(Br)[nH]c(=O)c32)C(OC(C)=O)C1OC(C)=O (centres undefined) | 61.7 µM | > 200 µM | 
C=C1CN(S(=O)(=O)c2ccc(C)cc2)CCCN(Cc2ccc(C)o2)CCCN(S(=O)(=O)c2ccc(C)cc2)C1 | > 200 µM | > 200 µM | 

Structure (SMILES) | EC50 | IC50 | outcome
CO/C=C/CCCNCc1ccccc1 | > 457 µM | > 457 µM | 
CCCCCC(/C=N/Nc1ccccc1)C(O)(C(F)(F)F)C(F)(F)F (centres undefined) | > 200 µM | 105 µM | 
CCCCC(C)(C/C=C/[C@@H]1[C@@H](C(O)CCCCCC(=O)OC)C(=O)C[C@H]1O[Si](C)(C)C(C)(C)C)O[Si](C)(C)C (some centres undefined) |  |  | inactive
O=C(NCCCCCN1CCC2(CCCCC2)CC1)C(c1ccccc1)C1CCCCC1 (centres undefined) | > 200 µM | 5.75 µM | 
N#CC1(C#N)C2CCCCC23OC(=N)C1(C#N)C(c1ccco1)O3 (centres undefined) | > 200 µM | 5.75 µM | 
COc1cc(O)c2c(=O)c3ccccc3n(C)c2c1 | > 200 µM | 11.2 µM | 
CC/C(SC)=[N+](\C)[O-] | > 955 µM | 174 µM | 
O=c1[nH]nc(-c2ccccc2)n1Nc1ccccc1 | > 200 µM | > 200 µM | 
COC(=O)C(=O)C(C(=O)C(=O)Nc1cccc(OC)c1)c1nc2ccc(Cl)cc2[nH]c1=O (centres undefined) | > 204 µM | 191 µM | 
N#CC1=C(N)N(c2ccccc2)C(=S)N2CCCCCCCC12 (centres undefined) | > 200 µM | 186 µM | 
N#CC1(C#N)C2(c3ccccc3)OC(c3ccccc3)(c3cc4ccccc4cc32)C1(C#N)C#N |  |  | inactive
CN(C)C(=S)N/N=C(\C(=N/NC(=S)N(C)C)c1ccccn1)c1ccccn1 | > 20 µM | 1.1 µM | 
C=C(CC[C@@H](O)C(Cl)CO)[Si](C)(C)C (some centres undefined) | > 110 µM | > 110 µM | 
CCOC(=O)/C=C/c1cccc(Cl)c1 | > 24.5 µM | > 24.5 µM | 
O=C1c2cccc3cccc(c23)C(=O)N1CCO | > 200 µM | 13.8 µM | 
COc1ccc(CCN(C)CCC[C@](C#N)(c2ccc(OC)c(OC)c2)C(C)C)cc1OC | > 200 µM | 38.9 µM | 
Cc1ccc2c3c4c(ccc13)C(C)(C)OC4=C(C(C)C)C2=O | > 200 µM | 15.8 µM | 
CC(C)O[C@H]1N(C2CC(N=[N+]=[N-])C(CO)O2)C(=O)NC(=O)[C@]1(C)Cl (some centres undefined) | > 200 µM | > 200 µM | 
COc1cc(C[C@H]2C(=O)OCC2Cc2ccc(OC)c(OC)c2)ccc1O (some centres undefined) | > 200 µM | 5.5 µM | 
O=c1cc(-c2ccc(O)cc2)oc2cc(O)cc(O)c12 | > 55 µM | 20.4 µM | 
COc1ccc(-c2cn3ccsc3n2)cc1 | > 195 µM | 162 µM | 

Structure (SMILES) | EC50 | IC50 | outcome
CCOC(=O)O/C(=C\c1ccc(OC)cc1)c1c(OC(=O)OCC)n(C(=O)OCC)c2ccccc12 | > 200 µM | 6.61 µM | 
O=[N+]([O-])c1nccn1CC(O)c1ccccc1 (centres undefined) | > 1070 µM | > 1070 µM | 
C[N+]1(C)CCC(OC(=O)C(O)(c2ccccc2)C2CCCC2)C1 (centres undefined) | > 200 µM | > 200 µM | 
CN1c2c(C(=O)Nc3nccs3)nn(-c3ccccc3)c2-c2ccccc2S1(=O)=O | > 22.9 µM | > 22.9 µM | 
CCOC(=O)c1c(N2CCCC2)ncn(Cc2ccccc2)c1=S | > 200 µM | > 200 µM | 
CN(C)NC1=NS(=O)(=O)c2cc3c(cc2S1)N(N(C)C)C(=O)c1cc2c(cc1N(N(C)C)C3=O)SC(NN(C)C)=NS2(=O)=O | > 200 µM | 141 µM | 
COc1ccc2c(c1)nc1n2C(c2c(F)cccc2Cl)SC1 (centres undefined) | > 200 µM | 4.17 µM | 
Nc1nc(=O)n(C2OC(CO)CC2F)cc1F (centres undefined) | 55 µM | 575 µM | 
CCN1C(=O)C(=O)C(CC)(CC)C1=O | > 200 µM | > 200 µM | 
CC1=C(C(=O)Nc2ccc([N+](=O)[O-])cc2)C(c2ccco2)C(C(=O)Nc2ccc([N+](=O)[O-])cc2)=C(C)N1 | > 19.5 µM | 11 µM | 
CCC(CS(=O)(=O)O)[N+](=O)[O-] (centres undefined) | > 200 µM | > 200 µM | 
CCOC(=O)C(=Cc1ccccc1F)C(=O)OCC | > 135 µM | 25.7 µM | 
CC1=C(CO)C(=O)O[C@@H]([C@@H](CO)[C@H]2CCC3C4C[C@@H](O)[C@@]5(O)CC=CC(=O)[C@]5(C)C4CC[C@@]32C)C1 (some centres undefined) |  |  | inactive
CCCCCCCCCCC(=O)CC(=O)c1c(O)cccc1O |  |  | inactive
CCCc1cc(=O)oc2c3c(c4c(c12)OC(C)(C)C=C4)O[C@H](C)[C@@H](C)[C@@H]3O | 4.68 µM | 16.2 µM | 
COc1cc2c(cc1C)C1=C(C)C(=O)OC1[C@@H](O)[C@@H]2C (some centres undefined) | > 661 µM | 245 µM | 
Cc1ccc2c(c1C)C(=O)/C(=C/c1cccc(C)c1C(=O)O)C2 |  |  | inactive
CCOC(=O)c1cc2c(nc1N)-c1ncccc1CC2 | > 19.5 µM | 0.219 µM | 
CN(C)c1ccc(C=C2c3ccccc3-c3ccccc32)cc1 | > 17.4 µM | > 17.4 µM | 
O=C(CC1C(=O)Nc2ccccc2S1(=O)=O)Nc1cc(Cl)ccc1Cl (centres undefined) | > 18.2 µM | > 18.2 µM | 
